# Reference: article PMC8875392, “Design and Characterization of Myristoylated and Non-Myristoylated Peptides Effective against Candida spp. Clinical Isolates” (International Journal of Molecular Sciences, 2022)
# Where two headings read alike, the source gives them in different places. Where a SMILES comes first, the peptide text is derived from it. The star is where a group is joined. Myristoyl = CCCCCCCCCCCCCC(=O)*
# Key:
# [1] = system: C. tropicalis clinical isolates; assay type: cell-based, Candida tropicalis; conditions: for MIC90: clinical isolates, 16 h; for MIC: CLSI broth microdilution, RPMI 1640
# Procedure: (§1) The antifungal activity of AMPs was determined against 50 clinical isolates, 10 for each of the following Candida species: C. albicans, C. tropicalis, C. glabrata, C. parapsilosis, and C. auris. The latter were derived from patients with positive blood cultures in four hospitals in India, with known resistance profiles to fluconazole, voriconazole, and echinocandins. Yeast cells were grown in Brain Heart Infusion (BHI) medium (Sigma-Aldrich, Gillingham, UK) for 16 h at 37 °C in a 150-rpm orbital shaker. Cells were then sub-inoculated in a fresh BHI medium and grown to an optical density (OD) of 0.3. The turbidity of the inoculum was adjusted to 0.5 McFarland and diluted 1:500 in RPMI 1640 broth, corresponding to around […].
# (§2) Minimal inhibitory concentrations (MICs) were determined by Broth microdilution susceptibility tests, according to The Clinical and Laboratory Standards Institute (CLSI) international guidelines. A fungal suspension of 0.5 MacFarland was diluted 1:500 in RPMI 1640 broth and incubated in 96 multi-well plates containing AMPs at different concentrations ranging from 0.125 to 256 μg/mL. In this range of concentration, lipopeptides were completely soluble. […] The MIC90 represents the value at which ≥90% of the strains within a test population were inhibited.
# [2] = Membrane partition, Trp-1 fluorescence upon titration with LUVs; assay type: binding; conditions: for KX (mole fraction partition constant): peptide 1.0 μM, 20 mM phosphate pH 7.4, 150 mM NaCl, 0.8 mM EDTA, 298 K, Trp fluorescence, quadruplicate; for ΔG: ΔG = −RT lnKx; for Selectivity Ratio: ratio between partition constants in anionic (POPC/POPG) and zwitterionic (POPC) membranes
# Procedure: To quantify the interaction of different lipidated and non-lipidated peptides with membrane mimetic systems, we measured the intrinsic fluorescence of Trp-1 upon partition with LUVs (large unilamellar vesicles) of different compositions. Briefly, the mixtures of POPC/POPG (70%/30% w/w) LUVs were used to mimic anionic membranes and POPC only to mimic zwitterionic membranes. […] The mole fraction partition constants Kx were calculated from the partition isotherms as previously described. Figure 2 reports the partition isotherms for the titration of myristoylated and non-myristoylated peptides with POPC and POPC/POPG vesicles.
# The values of Kx for all peptides are reported in Table 2 together with ΔG values, calculated using the expression ΔG = −RT lnKx, and the selectivity ratio defined as the ratio between partition constants determined in anionic and zwitterionic membranes. Higher values of the selectivity ratio represent a preference of the peptide for anionic vesicles, while lower values indicate a preference for the zwitterionic one.
# The lipids POPC (1-palmitoyl-2-oleoyl-sn-glycero-3-phosphocholine) and POPG (1-palmitoyl-2-oleoyl-sn-glycero-3-phosphoglycerol) were purchased from Avanti Polar Lipids (Alabaster, AL, USA) and used without further purification. LUVs (Large Unilamellar Vesicles) were prepared as previously reported. Briefly, appropriate amounts of lipids were dissolved in chloroform/methanol 9:1. The solvent was then removed by rotary evaporation and samples were placed overnight under a high vacuum. The lipid film was then hydrated by adding 1 mL of buffer (20 mM phosphate buffer at pH 7.4 with 150 mM NaCl and 0.8 mM EDTA) and then subjected to 5 freeze–thaw cycles and vortexed. The multilamellar vesicles (MLVS) were extruded through a polycarbonate membrane with pores of 100 nm by an Avanti polar mini extruder, and the obtained LUVs were used within 48 h of preparation. LUVs were composed of 100% POPC and a 70%/30% (w/w) combination of POPC/POPG. The final concentration of the lipid was 10 mM.
# All the steady-state fluorescence measurements were carried out using a Perkin Elmer LS55 fluorescence spectrophotometer. All the experiments were conducted at 298 K in a thermostatic cell holder and in 20 mM phosphate buffer at pH 7.4 containing 0.8 mM EDTA and 150 mM NaCl unless otherwise specified.
# Since all peptides contain tryptophan, fluorescence spectroscopy is an appropriate tool for studying these molecules. Peptide partitioning between buffer and lipid vesicles was monitored by measuring the increase in tryptophan fluorescence upon the addition of LUVs. Trp fluorescence spectra were recorded with λexc = 295 nm and scanning the emission between 305 and 400 nm. Measurements were carried out with a cross-oriented configuration of polarizers (polem = 0° and polexc = 90°). Briefly, a 1.0 μM solution of the peptide was titrated with LUVs of different compositions (POPC 100% and 70%/30% POPC/POPG) as previously described. The background effects of vesicles and buffer were subtracted from each spectrum. All the fluorescence emissions were corrected for dilution. Mole fraction partition coefficients Kx were calculated from the fraction of the partitioned peptide fp as previously described. The fraction of the partitioned peptide fp is given by the following equation [53] (6) fp=Kx[L]/[W]+Kx[L] where Kx is the mole fraction partition constant, and [L] and [W] are the molar concentrations of lipids and water, respectively.
# [3] = system: C. auris clinical isolates; assay type: cell-based, Candida auris; conditions: for MIC: CLSI broth microdilution, RPMI 1640
# Procedure: as §1, §2
MIC90 [1],MIC ([1]; isolate Candida tropicalis 1),MIC ([1]; isolate Candida tropicalis 2),MIC ([1]; isolate Candida tropicalis 3),MIC ([1]; isolate Candida tropicalis 4),MIC ([1]; isolate Candida tropicalis 5),MIC ([1]; isolate Candida tropicalis 6),MIC ([1]; isolate Candida tropicalis 7),MIC ([1]; isolate Candida tropicalis 8),MIC ([1]; isolate Candida tropicalis 9),MIC ([1]; isolate Candida tropicalis 10),KX (mole fraction partition constant) ([2]; POPC LUVs),ΔG ([2]; POPC LUVs),KX (mole fraction partition constant) ([2]; POPC/POPG 70%/30% LUVs),ΔG ([2]; POPC/POPG LUVs),MIC ([3]; isolate Candida Auris 1),MIC ([3]; isolate Candida Auris 2),MIC ([3]; isolate Candida Auris 3),MIC ([3]; isolate Candida Auris 4),SMILES,Selectivity Ratio [2],further results
16 µg/mL,16 µg/mL,16 µg/mL,16 µg/mL,16 µg/mL,16 µg/mL,16 µg/mL,16 µg/mL,16 µg/mL,16 µg/mL,16 µg/mL,(1.03 ± 0.04) × 10^5,-6.831 kcal/mol,(4.3 ± 0.8) × 10^5,-7.684 kcal/mol,> 256 µg/mL,> 256 µg/mL,> 256 µg/mL,> 256 µg/mL,CCCCCCCCCCCCCC(=O)N[C@@H](Cc1c[nH]c2ccccc12)C(=O)N[C@@H](Cc1ccccc1)C(=O)NCC(=O)N[C@@H](CCCCN)C(=O)N[C@@H](CC(C)C)C(=O)N[C@@H](Cc1ccc(O)cc1)C(=O)N[C@@H](CCCNC(=N)N)C(=O)NCC(=O)N[C@H](C(=O)N[C@H](C(=O)N[C@@H](CCCCN)C(=O)O)[C@@H](C)O)[C@@H](C)CC [Myr-A] (Myristoyl-WFGKLYRGITK-OH; C-terminus assumed),4.17,"MIC90 ([3]; clinical isolates, 16 h): >256 µg/mL; MIC ([3]; isolate Candida Auris 5): > 256 µg/mL; MIC ([3]; isolate Candida Auris 6): > 256 µg/mL; MIC ([3]; isolate Candida Auris 7): > 256 µg/mL; MIC ([3]; isolate Candida Auris 8): > 256 µg/mL; MIC ([3]; isolate Candida Auris 9): > 256 µg/mL; MIC ([3]; isolate Candida Auris 10): > 256 µg/mL"
16 µg/mL,16 µg/mL,16 µg/mL,16 µg/mL,16 µg/mL,16 µg/mL,16 µg/mL,16 µg/mL,16 µg/mL,16 µg/mL,16 µg/mL,(4.9 ± 0.3) × 10^5,-7.753 kcal/mol,(1.2 ± 0.2) × 10^6,-8.293 kcal/mol,16 µg/mL,16 µg/mL,32 µg/mL,32 µg/mL,CCCCCCCCCCCCCC(=O)N[C@@H](Cc1c[nH]c2ccccc12)C(=O)N[C@H](C(=O)N[C@H](C(=O)N[C@@H](CCCCN)C(=O)N[C@@H](CCCCN)C(=O)N[C@H](C(=O)N[C@@H](CCCCN)C(=O)NCC(=O)N[C@@H](CC(C)C)C(=O)N[C@@H](CC(C)C)C(=O)N[C@@H](CCCCN)C(=O)O)C(C)C)C(C)C)C(C)C [Myr-C] (Myristoyl-WVVKKVKGLLK-OH; C-terminus assumed),2.45,MIC ([3]; isolate Candida Auris 5): 64 µg/mL; MIC ([3]; isolate Candida Auris 6): 32 µg/mL; MIC ([3]; isolate Candida Auris 7): 32 µg/mL; MIC ([3]; isolate Candida Auris 8): 32 µg/mL; MIC ([3]; isolate Candida Auris 9): 16 µg/mL; MIC ([3]; isolate Candida Auris 10): 32 µg/mL

SMILES,MIC90 [1],MIC ([1]; isolate Candida tropicalis 1),MIC ([1]; isolate Candida tropicalis 2),MIC ([1]; isolate Candida tropicalis 3),MIC ([1]; isolate Candida tropicalis 4),MIC ([1]; isolate Candida tropicalis 5),MIC ([1]; isolate Candida tropicalis 6),MIC ([1]; isolate Candida tropicalis 7),MIC ([1]; isolate Candida tropicalis 8),MIC ([1]; isolate Candida tropicalis 9),MIC ([1]; isolate Candida tropicalis 10),KX (mole fraction partition constant) ([2]; POPC LUVs),ΔG ([2]; POPC LUVs),KX (mole fraction partition constant) ([2]; POPC/POPG 70%/30% LUVs),ΔG ([2]; POPC/POPG LUVs),MIC ([3]; isolate Candida Auris 1),MIC ([3]; isolate Candida Auris 2),MIC ([3]; isolate Candida Auris 3),MIC ([3]; isolate Candida Auris 4),Selectivity Ratio [2],further results
CCCCCCCCCCCCCC(=O)N[C@@H](Cc1c[nH]c2ccccc12)C(=O)N[C@@H](CCCNC(=N)N)C(=O)NCC(=O)N[C@H](C(=O)N[C@H](C(=O)N[C@@H](CCCCN)C(=O)N[C@H](C(=O)N[C@H](C(=O)N[C@@H](CCCCN)C(=O)N[C@@H](CCCCN)C(=O)N[C@H](C(=O)O)C(C)C)C(C)C)C(C)C)[C@@H](C)O)[C@@H](C)CC [Myr-B] (Myristoyl-WRGITKVVKKV-OH; C-terminus assumed),8 µg/mL,8 µg/mL,8 µg/mL,8 µg/mL,8 µg/mL,8 µg/mL,8 µg/mL,8 µg/mL,8 µg/mL,8 µg/mL,8 µg/mL,(4.7 ± 0.6) × 10^5,-7.737 kcal/mol,(1.7 ± 0.2) × 10^6,-8.499 kcal/mol,8 µg/mL,8 µg/mL,16 µg/mL,32 µg/mL,3.62,"MIC90 ([3]; clinical isolates, 16 h): 20 µM; MIC (Range) ([3]; clinical isolates, 16 h): 16 to 32 µg/mL; MIC ([3]; isolate Candida Auris 5): 32 µg/mL; MIC ([3]; isolate Candida Auris 6): 16 µg/mL; MIC ([3]; isolate Candida Auris 7): 16 µg/mL; MIC ([3]; isolate Candida Auris 8): 16 µg/mL; MIC ([3]; isolate Candida Auris 9): 32 µg/mL; MIC ([3]; isolate Candida Auris 10): 32 µg/mL"
